Assays:
tissue adenosine = assay: In vivo effect on adenosine levels in various rat tissues; parameters: species or system Fischer 344 rats
Protocol: Folinic acid (50 mg/kg) was administered intraperitoneally once daily for fourteen days. […] Hearts were removed from animals and flash frozen in liquid nitrogen with 10 s of death. Liver and lungs were removed en bloc and flash frozen with 30 s of death. Brain tissue was subsequently dissected.

HT-29 SF cells [1] = assay: Reversal of DHEA effect on cell cycle; assay type: cell-based, human; conditions: 25 μM DHEA, 48 and 72 hours
HT-29 SF cells [2] = assay: Reversal of DHEA-mediated growth inhibition; assay type: cell-based, human; conditions: 25 μM DHEA, 48 hours; 2 μM MVA, 80 μM SQ, 15 μg/ml CH, RN 30 μM each, DN 20 μM each
HT-29 SF cells [3] = assay: DHEA effect on cell growth (Coulter counter); assay type: cell-based, human; conditions: 12.5-200 μM, 24-72 hours, FIG. 14
HT-29 SF cells [4] = assay: DHEA effect on cell cycle distribution (flow cytometry); assay type: cell-based, human
Protocol: Cells were plated at 10^5/60-mm dish in duplicate. […] Cultures were trypsinized following […] and fixed and stained using a modification of a procedure of Bauer et al., Cancer Res. 46, 3173-3178 (1986). Briefly, cells were collected by centrifugation and resuspended in cold phosphate-buffered saline. Cells were fixed in 70% ethanol, washed, and resuspended in phosphate-buffered saline.
After 24, 48, and 72 hours, cells were harvested, fixed in ethanol, and stained with propidium iodide, and the DNA content/cell was determined by flow cytometric analysis. The percentage of cells in G1, S, and G2M phases was calculated using the Cellfit cell cycle analysis program. S phase is marked by a quadrangle for clarity. Representative histograms from duplicate determinations are shown. The experiment was repeated three times.

[5] = Fine particle fraction, single-dose Acu-Breathe inhaler into Andersen impactor; assay type: physicochemical; conditions: neat micronized powder, 30 to 75 L/min, FIG. 1
Protocol: These blisters are actuated into the Andersen 8-stage cascade impactor at flow rates ranging from 30 to 75 L/min with a glass twin-impinger throat. Stages 1-5 of the Andersen impactor are rinsed together to obtain an estimate of the fine particle fraction. Pooling the drug collected from multiple stages into one assay make the method much more sensitive. […] Using a carrier with a larger particle size typically improves the aerosol properties of micronized drug substances.
Approximately 25 mg of this powder is filled and sealed in foil blisters and aerosolized using the single-dose device at 60 L/min. The aerosol results for this preliminary powder blend are satisfactory for a respiratory drug delivery system. […] This diameter is smaller than the median diameter measured for micronized DHEA-S.dihydrate by laser diffraction. Irregularly shaped particles can behave aerodynamically as smaller particles since their longest dimension tends to align with the air flow field. Therefore, it is common to see a difference between the two methods. Diffraction measurements are a quality control test for the input material while cascade impaction is a quality control test for the finished product.

[6] = Physicochemical testing of DHEA-S dihydrate (BET surface area, Karl Fischer water, impurities)
Protocol: (§1) Surface area is determined using five point BET analyses are performed with nitrogen as the adsorbing gas (P/Po=0.05 to 0.30) using a Micromeritics TriStar surface area analyzer. Particle size distributions are measured by laser diffraction using a Micromeritics Saturn Digisizer where the particles are suspended in mineral oil th sodium dioctyl sodium sulfosuccinate as a dispersing agent. Drug substance water content is measured by Karl Fischer titration (Schott Titroline KF). Pure water is used as the standard and all relative standard deviations for triplicates are less than 1%. Powder is added directly to the titration media.

[7] = Solid-state stability with and without lactose (DHEA formed, HPLC); assay type: physicochemical
Source text: These conditions were used to stress the formulation in order to predict its long-term stability results. […] This color change is accompanied by a significant change in the chromatogram as shown in. FIG. 1. The primary degradant is DHEA. […] The materials on accelerated storage become more cohesive with time as evidenced by clumping during sample weighing for chemical analysis. […] This is a considerable disadvantage since lactose is the most commonly used inhalation excipient for dry powder formulations. Continuing with the virtually anhydrous form would mean limiting formulations to neat powder or undertaking more comprehensive safety studies to use a novel excipient.

[8] = Particle size of DHEA-S powders (laser diffraction, light microscope); assay type: physicochemical
Protocol: Approximately 1 g sample was passed through the jet mill, once, and approximately 2 g sample were passed through the jet mill twice. […] The resulting solution was sonicated for 3 minutes and appeared fully dispersed. The dispersed solutions were tested on a Malvern Mastersizer X with a small volume sampler (SVS) attachment. One sample of dispersed material was tested 5 times. The median particle size or D (v, 0.5) of unmilled material was 52.56 μm and the % RSD (relative standard deviation) was 7.61 for the 5 values. The D (v, 0.5) for a single pass through the jet mill was 3.90 μm and the % RSD was 1.27, and the D (v, 0.5) from a double pass through the jet mill 3.25 μm and the % RSD was 3.10.
The solution was spray-dried with a B-191 Mini Spray-Drier (Buchi, Flawil, Switzerland) with an inlet temperature of 55° C., outlet temperature of 40° C., at 100% aspirator, at 10% pump, nitrogen flow at 40 mbar and spray flow at 600 units. The spray-dried product was suspended in hexane and Span85 surfactant added to reduce agglomeration. The dispersions were sonicated with cooling for 3-5 minutes for complete dispersion and the dispersed solutions tested on a Malvern Mastersizer X with a Small Volume Sampler (SVS) attachment. […] Visual examination by light microscope of the dispersions of each batch confirmed that spray drying produced small respirable size particles. The mean particle size was 2.4 μm and 2.0 μm for each batch, respectively.
as §1

[9] = Short-term solution stability of DHEA-S in 0.12% NaCl; assay type: physicochemical; conditions: for appearance / decomposition on storage: 10 mg/mL in 0.12% NaCl
Protocol: Aliquots of this solution are filled into clear glass vials and stored at RT (24-26° C.) and at 40° C. The samples are checked daily for DHEA-S content, DHEA content, and appearance. For each time point, duplicate samples are withdrawn and diluted from each vial. […] The study is stopped on day three. […] The solution should easily be stable for the day of reconstitution in a clinical trial. The following section describes the aerosol properties of this formulation.

[10] = Solubility of DHEA-S dihydrate and nebulizer solution properties; assay type: physicochemical; conditions: for solubility: range of triplicates
Source text: Inhalation of pure water can produce a cough stimulus. […] The temperature effect is weaker at high NaCl concentrations.

[11] = tested on: rat peritoneal mast cells; assay: Compound 48/80-induced histamine release from rat peritoneal mast cells; assay type: cell-based
Protocol: Following incubation, the mixture is cooled to 4° C. then centrifuged at 4500 rpm for 5 min. The supernatant is collected and mixed for 30 min at 4° C. with 5% TCA (trichloroacetic acid) to cause protein precipitation. After centrifugation at 9500×g for 15 min, the supernatant is collected and mixed with 0.25 M HCl. Thereafter, the samples are mixed with 2M NaOH and 0.2% OPT (ortho-phtalaldehyde).and incubated for 30 min at 4° C. in darkness, after which time the reaction is stopped by addition of 0.5 M H2SO4.
The amount of secreted histamine is quantified by measuring the fluorescence intensity at λex=360 nm and λem=450 nm using a spectrofluorimeter (GeminiXS, Molecular Devices). The results are expressed as a percent inhibition of control histamine secretion.

[12] = rat, daily for two weeks, DHEA, high dose methyltestosterone

Nc1nc(=O)c2c([nH]1)NCC(CNc1ccc(C(=O)N[C@@H](CCC(=O)O)C(=O)O)cc1)N2C=O (mixture of isomers) [Folinic Acid]
Intracellular adenosine, Brain (tissue adenosine; rat brain, once daily 14 days, DHEA 300 mg/kg, methyltestosterone 40 mg/kg by gavage, folinic acid 50 mg/kg i.p., mean ± SEM): 0.72 ± 0.09 nmols/mg protein
Intracellular adenosine, Heart (tissue adenosine; rat heart, once daily 14 days, DHEA 300 mg/kg, methyltestosterone 40 mg/kg by gavage, folinic acid 50 mg/kg i.p., mean ± SEM): 12.4 ± 2.1 nmols/mg protein
Intracellular adenosine, Liver (tissue adenosine; rat liver, once daily 14 days, DHEA 300 mg/kg, methyltestosterone 40 mg/kg by gavage, folinic acid 50 mg/kg i.p., mean ± SEM): 16.4 ± 2.4 nmols/mg protein
adenosine levels, folinic acid administered alone (tissue adenosine; rat, 50 mg/kg i.p. 14 days): increase in adenosine levels for all organs studied
effect of coadministration of folinic acid on steroid-mediated adenosine depletion (tissue adenosine; rat, with DHEA or methyltestosterone): completely abrogated

CC(C)CCC[C@@H](C)[C@H]1CC[C@H]2[C@@H]3CC=C4C[C@@H](O)CC[C@]4(C)[C@H]3CC[C@]12C [CH, cholesterol]
prevention of DHEA-induced S phase depletion by supplement (HT-29 SF cells [1]): very little effect at 48 hours and no effect at 72 hours
reversal of DHEA-induced growth inhibition by supplement (HT-29 SF cells [2]): no such effect

C[C@]12CC[C@H](O)CC1=CC[C@@H]1[C@@H]2CC[C@]2(C)C(=O)CC[C@@H]12 [DHEA, 3β-hydroxyandrost-5-en-17-one]
inhibition of growth (HT-29 SF cells [3]): time- and dose-dependent inhibition of growth
cell cycle distribution (HT-29 SF cells [4]; 200 μM DHEA, 24 hours): increase in the percentage of cells in G1 and a decreased proportion of cells in S phase
cell cycle block (HT-29 SF cells [4]; 25-200 μM, 24-72 hours, FIG. 15): G1 block
cell cycle distribution (HT-29 SF cells [4]; 25 or 50 μM DHEA, 72 hours): percentage of cells in G1 phase was increased
cell cycle distribution (HT-29 SF cells [4]; 25 or 50 μM DHEA, initial 24 hours): unchanged

CC12CCC3C(CC=C4CC(OS(=O)(=O)[O-])CCC43C)C1CCC2=O.[Na+] (centres unmarked) [DHEA-S dihydrate]
fine particle fraction as a function of flow rate [5]: higher fine particle fraction than the virtually anhydrous material
Impurities ([6]; Bulk): No significant peaks
Water ([6]; Bulk): 8.5 % w/w
Impurities ([6]; Micronized): No significant peaks
Surface area ([6]; Micronized): 4.9 m^2/g
Water ([6]; Micronized): 8.4 % w/w
DHEA % formed ([7]; 50° C., 1 week): 0.216%
DHEA % formed ([7]; 50° C., 3 weeks): 0.317%
DHEA % formed ([7]; 50° C., 4 weeks): 0.374%
DHEA % formed ([7]; Control: neat, sealed vial, 25° C., 4 weeks): 0.218%
DHEA % formed ([7]; Control: neat, sealed vial, 25° C., first time column (head empty, time 0)): 0.213%
water content, starting value ([7]; before storage): 8.8%
water content after accelerated storage ([7]; one week at 50° C.): 8.66%
Particle size (D50%) ([8]; Bulk, before micronization): 31 microns
Particle size (D50%) ([8]; Micronized): 3.7 microns

C[C@]12CC[C@H](OS(=O)(=O)[O-])CC1=CC[C@@H]1[C@@H]2CC[C@]2(C)C(=O)CC[C@@H]12.[Na+] [DHEA-S, sodium dehydroepiandrostenone sulfate]
solution stability of nebulizer formulation ([9]; 7.5 mg/mL in 0.12% NaCl, RT): stable for at least one day at RT
appearance / decomposition on storage ([9]; 40° C.): became cloudy after two days of storage
appearance / decomposition on storage ([9]; RT (24-26° C.)): slight precipitate is observed on the third day
solubility in hexane [10]: insoluble
solubility ([10]; 0.9% NaCl, refrigerated (7-8° C.)): 1100 to 1300 µg/mL
Ksp ([10]; 15° C., interpolated): ~1316 mM^2
equilibrium constant Ksp ([10]; refrigerated (7-8° C.)): 665 mM^2
equilibrium constant Ksp ([10]; room temperature (24-25° C.)): 2236 mM^2
solubility ([10]; ~25° C., 0% NaCl, excess DHEA-S dihydrate): 16500 to 17400 µg/mL

C[C@@](O)(CCO)CC(=O)O [MVA, mevalonic acid]
prevention of DHEA-induced S phase depletion by supplement (HT-29 SF cells [1]): partially prevented this effect in the initial 48 hours but not after 72 hours
reversal of DHEA-induced growth inhibition by supplement (HT-29 SF cells [2]): partially overcome

C[C@]12CCC(=O)C=C1CC[C@@H]1[C@@H]2CC[C@@]2(C)[C@H]1CC[C@]2(C)O [Methyltestosterone]
Intracellular adenosine, Liver (tissue adenosine; rat liver, methyltestosterone 120 mg/kg, mean ± SEM): 5.1 ± 0.5 nmols/mg protein
depletion of adenosine in brain (tissue adenosine; [12]): 34%
depletion of adenosine in heart (tissue adenosine; [12]): 22%
Intracellular adenosine, Liver (tissue adenosine; rat, in vivo): 16.5 ± 0.9 nmols/mg protein

CC(C)=CCC/C(C)=C/CC/C(C)=C/CC/C=C(\C)CC/C=C(\C)CCC=C(C)C [SQ, squalene]
reversal of DHEA-induced growth inhibition by supplement (HT-29 SF cells [2]): no such effect

CC(C)(C)NCC(O)c1ccc(O)c(CO)c1 (stereo not drawn) [Salbutamol, (α1-tert-butylaminomothyl)-4-hydroxy-m-xylene-α1,α3-diol]
inhibition at 1 pM ([11]; Rattus norvegicus, Mast cell): -1%
inhibition at 10 pM ([11]; Rattus norvegicus, Mast cell): 7%
inhibition at 0.0001 µM ([11]; Rattus norvegicus, Mast cell): 2%
inhibition of compound 48/80-induced histamine release ([11]; Salbutamol 1, 10 and 100 pM alone): no or trivial inhibition
